{"source": "patent US20060002946A1", "about": "“Targeted immunogens” (Aventis Pasteur, Inc., priority 2003, published 2006)", "key": {"C57BL/6 mice [1]": {"test_system": "C57BL/6 mice", "assay": "Immunization with […] conjugates, CTL assay (FIGS. 7, 9, 10)", "assay_type": "in vivo, mouse", "conditions": "for cytotoxicity levels, adjuvant free immunization: s.c. without adjuvant; for CTL responses / cytotoxicity, Tat versus hPER1 conjugates: s.c., DEVWEL linker, FIG. 7", "source_text": "FIG. 7. In vivo induction of T cell responses using hPER1 or Tat peptides conjugated to […] epitope. Mice were immunized subcutaneously with […] peptide associated to either Tat or hPER1 with the DEVWEL linker sequence. Results shown in this figure represent the mean value of 4 individual mice for each group.\nFIG. 9. […] C57BL/6 mice were immunized intradermally with different doses of hPER1-SGQL-[…] with or without helper peptide.\nFIG. 10. In vivo induction of immunity following adjuvant free peptide immunization with hPER1 associated to […] in the presence of different linker sequences.\n(§1) In carrying out the experiments described in FIGS. 6 and 13, mice were immunized by the specified route with 50 nmol (if not specified otherwise) of peptide plus 50 nmol of a hepatitis B epitope in mice to serve as a helper CD4 peptide. Three weeks after the first injection a boost was carried out with the same regimen, and three weeks after that, spleens were harvested and homogenized to a single suspension. Whole splenocytes were placed into culture with 0.5 ug/ml of the epitope peptide and incubated at 37 degrees for five days. A CTL assay was conducted on day five of culture after Ficoll treatment to purify live cells. Controls that were used are matched Kb or A2 binding peptides."}, "mice": {"test_system": "mice", "assay": "Summary of in vivo Immunogenicity Studies (Table IV)", "design": "species or system mouse"}, "A2/Kb mice": {"test_system": "A2/Kb mice", "assay": "Immunization with gp100-154 peptides plus or minus helper CD4 peptide, CTL assay (FIGS. 6, 8, 13)", "assay_type": "in vivo, mouse", "conditions": "for CTL responses / cytotoxicity at three weeks and three months: s.c. immunization, FIG. 13", "source_text": "Results shown represent the mean value of four individual mice for each group.\nFIG. 8. The presence of a helper CD4 hepatitis B peptide is essential for the generation of CTL responses against a CD8 peptide. A2/Kb mice were inoculated intranasally with hPER1-FVYVW-154 peptide at different doses from 50 nmoles to 1 nmoles with or without helper peptide.\nFIG. 13. Induction of long-term immunity following hPER1-FVYVW-gp100-154 peptide immunization. CTL responses in A2/Kb mice following 3 weeks or 3 months subcutaneous immunization with gp100-154 epitope alone or in association with hPER1-FVYVW. […] Short-term (3 weeks) as well as long-term (3 months) T cell responses are observed in 4/4 or ¾ mice respectively following hPEr1-FVYVW-154 immunization.\nas §1"}, "[2]": {"test_system": "Splenocytes from C57BL/6 mice", "assay": "In vitro analysis of OVA ([…]) peptide presentation, IFN-γ ELISPOT (FIG. 11)", "assay_type": "cell-based, mouse", "conditions": "10 ug/ml pulse 1 hour; for stimulatory activity of pulsed cells after 30 hours: 30 hours incubation, IFN-γ ELISPOT", "experimental": "FIG. 11. In vitro analysis of OVA ([…]) peptide presentation. Splenocytes from C57BL/6 mice were pulsed with 10 ug/ml of the indicated peptides for 1 hour at 37° C., washed, and incubated for 0, 4, 8, 24, or 30 hours. Cells pulsed with transduction peptides were pre-incubated with a bGAL peptide to block any cell surface binding. The cells were then tested by ELISPOT for their ability to induce IFN-γ secretion from […]-specific T cells. Spot counts greater than 300/well could not be counted. *=sample not tested.\nTo further study the effect of coupling CTL epitopes to the hPER1 transduction domain, the following in vitro assay was developed to assess the kinetics of antigen presentation following incubation of cells with peptide. In FIG. 11, splenocytes from C57BL/6 mice were incubated with different OVA-based peptides for 1 hour at 37° C. The cells were then washed to remove any residual free peptide, and incubated in culture medium at 37° C. for 0, 4, 8, 24 or 30 hours. The cells were then tested for their ability to stimulate IFN-γ production from […]-specific T cells by ELISPOT."}, "C57BL/6 mice [3]": {"test_system": "C57BL/6 mice", "assay": "i.v. injection of peptide-pulsed dendritic cells, CTL chromium release (FIG. 4)", "assay_type": "in vivo, mouse", "conditions": "5×10^5 pulsed DCs i.v., one week post immunization, SIINFEKL-pulsed targets", "experimental": "FIG. 4. CTL responses in C57BL/6 nice following intravenous (i.v.) injection of peptide-pulsed DCs. Mice were immunized i.v. with 5×10^5 bone marrow-derived DCs pulsed with the indicated peptides.\nConsequently, we tested the ability of transcytosis peptides to generate CTL responses in the context of a DC-based vaccine. Murine bone marrow derived dendritic cells were matured in vitro, pulsed with either […] alone, conjugated with either Tat or hPER1 with or without linkers, and were injected intravenously in the tail vein of C57BL/6 mice. One week post immunization, the splenocytes from vaccinated animals were tested for CTL activity following in vitro restimulation."}, "[4]": {"test_system": "HLA-A2/Kb transgenic mice", "assay": "s.c. peptide immunization, gp100-154 CTL chromium release (FIG. 5)", "conditions": "50 ug s.c., boosts days 21 and 42, day 63", "quoted_text": "CTL responses in HLA-A2/Kb transgenic mice following subcutaneous (s.c.) injection of peptide. Mice were immunized s.c. with 50 ug of the indicated peptides and boosted on days 21 and 42 following the first injection. Splenocytes from immunized animals were harvested on day 63 post immunization, re-stimulated with the native gp100-154 peptide for 5 days, and tested for CTL activity in a standard chromium release assay using target cells pulsed with gp100-154 peptide.\nFurthermore, CTL responses were assessed in HLA-A2/K^b transgenic mice (Sherman strain) following s.c. immunization with gp100-154 peptide alone, conjugated to hPER1 or AntpHD with or without linker FVYVW. Mice were boosted on days 21 and 42 and splenocytes from vaccinated animals were harvested on day 63 and tested for CTL activity after 5 days of restimulation in vitro."}, "[5]": {"test_system": "Splenocytes from C57BL/6 mice", "assay": "In vitro analysis of NP peptide presentation, IFN-γ ELISPOT (FIG. 12)", "assay_type": "cell-based, mouse", "conditions": "10 ug/ml pulse 1 hour; for duration of ability of pulsed cells to stimulate T cells: incubation up to 120 hours (limit of the assay)", "experimental": "FIG. 12. In vitro analysis of NP peptide presentation. Splenocytes from C57BL/6 mice were pulsed with 10 ug/ml of the indicated peptides for 1 hour at 37C., washed, and incubated for 0, 24, 72, or 120 hours. Cells were then tested by ELISPOT for their ability to induce IFN-γ secretion from NP-specific T cells.\nFIG. 12 illustrates a similar analysis performed using the NP system."}, "RMA cells": {"test_system": "RMA cells", "assay": "Sensitization of RMA target cells for CTL lysis, chromium release assay", "assay_type": "cell-based, mouse", "conditions": "10 pg/ml peptide, 1 hour at 37° C., 4-hour chromium release, T cells of influenza-immunized C57BL/6 mice", "experimental": "FIG. 1. In vitro sensitization of target cells for peptide-specific lysis by hPER1 conjugates.\nTo determine whether hPER1-CTL conjugates can form CTL target structures, ^51Cr-labeled RMA cells were pulsed with 10^−11 g/ml NP peptide ([…]) or hPER1-NP peptide ([…]), or were left untreated (no peptide) and incubated for 1 hour at 37° C. The cells were then washed and tested for CTL recognition in a standard 4-hour chromium release assay, using T cells obtained from the spleens of C57BL/6 mice immunized with influenza virus."}, "[6]": {"conditions": "grades − to + + + +, key not given"}}, "note": "“Also recorded” adds a separate entry of the source.", "data": [{"substance": "RRHHRRSKAKRSRFVYVWSIINFEKL [hPER1, linker FVYVW, OVA]", "values": [{"measurement": "cytotoxicity levels, adjuvant free immunization", "setting": "C57BL/6 mice [1]; FIG. 10", "result": "comparable"}, {"measurement": "Immunogenicity in mice", "setting": "mice; [6]", "result": "+ + + +"}]}, {"substance": "RRHHRRSKAKRSRFVYVWSVYDFFVWL [hPER1, linker FVYVW, TRP-2]", "values": [{"measurement": "Immunogenicity in mice", "setting": "mice; [6]", "result": "+ + +"}]}, {"substance": "RRHHRRSKAKRSRFVYVWKTWGQYWQV [hPER1, linker FVYVW, gp100-154] [listing 1 of 2 here]", "values": [{"measurement": "CTL responses by different routes of immunization", "setting": "A2/Kb mice; 50 nmol peptide plus 50 nmol helper peptide, intradermal, subcutaneous or intranasal", "result": "can be generated through different routes of immunization"}, {"measurement": "cytotoxicity at 10 nmoles without helper peptide", "setting": "A2/Kb mice; intranasal, 10 nmoles, absence of helper peptide", "result": "does not induce significant cytotoxicity"}, {"measurement": "T cell cytotoxicity, without helper peptide", "setting": "A2/Kb mice; intranasal, in the absence of helper peptide", "result": "induced much lower levels of cytotoxicity"}, {"measurement": "T cell cytotoxicity, with helper peptide", "setting": "A2/Kb mice; intranasal, in the presence of helper CD4 hepatitis B peptide", "result": "induced significant T cell cytotoxicity"}, {"measurement": "CTL responses / cytotoxicity at three weeks and three months", "setting": "A2/Kb mice", "result": "induced cytotoxicity that was detectable for at least three months"}, {"measurement": "mice with long-term T cell responses", "setting": "A2/Kb mice; s.c., 3 months, 4 mice/group", "result": "¾"}, {"measurement": "mice with short-term T cell responses", "setting": "A2/Kb mice; s.c., 3 weeks, 4 mice/group", "result": "4/4"}]}, {"substance": "YGRKKRRQRRRDEVWELSIINFEKL", "values": [{"measurement": "stimulatory activity of pulsed cells after 30 hours", "setting": "[2]", "result": "no reduction in activity"}, {"measurement": "Immunogenicity in mice", "setting": "mice; mouse, in vivo", "result": "+ + +"}]}, {"substance": "RRHHRRSKAKRSRSGQLSIINFEKL [hPER1, linker SGQL, OVA]", "values": [{"measurement": "T cell responses without helper peptide at higher peptide dose", "setting": "C57BL/6 mice [1]; intradermal, different doses, absence of helper peptide, FIG. 9", "result": "can induce T cell responses in mice"}, {"measurement": "stimulatory activity of pulsed cells after 30 hours", "setting": "[2]", "result": "no reduction in activity"}]}, {"substance": "GYGRKKRRQRRR-LEQLE-SIINFEKL", "values": [{"measurement": "CTL responses after peptide-pulsed DC vaccine", "setting": "C57BL/6 mice [3]", "result": "less immunogenic than TAT-SIINFEKL without linker"}]}, {"substance": "RQIKIWFQNRRMKWKKLKTWGQYWQV [AntpHD, linker L, gp100-154]", "values": [{"measurement": "Immunogenicity in mice", "setting": "mice; [6]", "result": "+ + +"}]}, {"substance": "RRHHRRSKAKRSRFVYVWKTWGQYWQV [hPER1, linker FVYVW, gp100-154] [listing 2 of 2 here]", "values": [{"measurement": "Immunogenicity in mice", "setting": "mice; mouse, in vivo", "result": "+ + + +"}]}, {"substance": "RQIKIWFQNRRMKWKKTWVGQYWQV", "values": [{"measurement": "CTL responses against gp100-154", "setting": "[4]", "result": "a weak response was observed"}]}, {"substance": "RRHHRRSKAKRSRSVYDFFVWL [hPER1, no linker, TRP-2]", "values": [{"measurement": "Immunogenicity in mice", "setting": "mice; [6]", "result": "+ +"}]}, {"substance": "SVYDFFVWL [TRP2 peptide, unconjugated, reference compound]", "values": [{"measurement": "CTL responses after peptide-pulsed DC vaccine", "setting": "C57BL/6 mice [3]", "result": "non immunogenic"}, {"measurement": "Immunogenicity in mice", "setting": "mice; [6]", "result": "+ +"}]}, {"substance": "ASNENMETM [reference compound]", "values": [{"measurement": "stimulatory activity of pulsed cells after 24 hours of incubation", "setting": "[5]; IFN-γ ELISPOT with NP-specific T cells", "result": "shows a loss in activity"}]}, {"substance": "RQIKIWFQNRRMKWKKFVYVWKTWGQYWQV [AntpHD, linker FVYVW, gp100-154]", "values": [{"measurement": "Immunogenicity in mice", "setting": "mice; [6]", "result": "+ + + +"}]}, {"substance": "GRRHHRRSKAKRSRASNENMETM [hPER1, no linker, flu NP366-374]", "values": [{"measurement": "sensitization of RMA target cells for CTL-mediated lysis", "setting": "RMA cells", "result": "can be sensitized for CTL-mediated lysis"}, {"measurement": "duration of ability of pulsed cells to stimulate T cells", "setting": "[5]", "result": "retain their ability to stimulate T cells out to five days"}]}, {"substance": "RRHHRRSKAKRSRLSVYDFFVWL [hPER1, linker L, TRP2]", "values": [{"measurement": "Immunogenicity in mice", "setting": "mice; [6]", "result": "+ +"}]}, {"substance": "RRHHRRSKAKRSRSIINFEKL [hPER1, no linker, OVA]", "values": [{"measurement": "CTL responses after peptide-pulsed DC vaccine", "setting": "C57BL/6 mice [3]", "result": "generated a stronger response than either DCs pulsed with native SIINFEKL peptide or hPER1-LEQLE-SIINFEKL"}]}, {"substance": "RRHHRRSKAKRSRDEVWELSIINFEKL [hPER1, linker DEVWEL, OVA]", "values": [{"measurement": "cytotoxicity levels, adjuvant free immunization", "setting": "C57BL/6 mice [1]; FIG. 10", "result": "comparable"}, {"measurement": "CTL responses / cytotoxicity, Tat versus hPER1 conjugates", "setting": "C57BL/6 mice [1]", "result": "gave the best CTL responses as compared to the positive control SIINFEKL in IFA"}, {"measurement": "CTL responses / cytotoxicity, Tat versus hPER1 conjugates", "setting": "C57BL/6 mice [1]; listed as hPER1-DEVWEL-SIINFEKL", "result": "induced a greater level of cytotoxicity as compared to Tat-DEVWEL-SIINFEKL at all E:T ratios tested"}, {"measurement": "Immunogenicity in mice", "setting": "mice; [6]", "result": "+ + + +"}]}, {"substance": "SIINFEKL [reference compound]", "values": [{"measurement": "cytotoxicity levels, peptide in IFA", "setting": "C57BL/6 mice [1]; administered with incomplete Fruend's adjuvant, FIG. 10", "result": "comparable"}, {"measurement": "incubation time by which pulsed cells lose their stimulatory capacity", "setting": "[2]; IFN-γ ELISPOT with SIINFEKL-specific T cells", "result": "≤ 24", "unit": "h"}]}, {"substance": "KTWGQYWQV [reference compound]", "values": [{"measurement": "CTL responses / cytotoxicity at three weeks and three months", "setting": "A2/Kb mice; listed as 154", "result": "did not induce cytotoxicity at either three weeks or three months; also recorded: does not generate significant CTL responses"}]}, {"substance": "RRHHRRSKAKRSRRGVQIASNENMETM [hPER1, linker RGVQI, flu NP366-374]", "values": [{"measurement": "duration of ability of pulsed cells to stimulate T cells", "setting": "[5]", "result": "retain their ability to stimulate T cells out to five days"}]}]}
